The assay deals with T1, FimH (Escherichia coli, UniProt Q1R2J4).
T1 construct: performed with UTI89 bacteria and guinea pig red blood cells; endogenous in cells; host or cells: UTI89 bacteria (whole cells, type 1 piliated)
Type of assay: cell-based. The conditions noted are these: concentration reducing bacterial agglutination of guinea pig red blood cells by greater than 90%; UTI89 bacteria. On the procedure:
The hemagglutination inhibition (HAI) assay was performed with UTI89 bacteria and guinea pig red blood cells, as previously described (S. J. Hultgren, W. R. Schwan, A. J. Schaeffer, J. L. Duncan Infect. Immun. 1986, 54, 613-620).

Take `CNC(=O)c1cccc(-c2ccc(C(OC)[C@H]3O[C@H](CO)[C@@H](O)[C@H](O)[C@@H]3O)cc2C)c1` (single isomer, unassigned) [Example 8]: the “HAI titer EC>90” value was 0.5 µM.

Regarding `Cc1cc(-c2ccc3cc[nH]c(=O)c3c2)cc(C)c1[C@@H](O)[C@H]1OC(CO)[C@@H](O)[C@H](O)C1O` (single isomer, unassigned) [Example 29], the “HAI titer EC>90” value was found to be 0.108 µM.

On to `Cc1cc(-c2ccc3cc[nH]c(=O)c3c2)cc(C)c1[C@H](O)[C@H]1OC(CO)[C@@H](O)[C@H](O)C1O` (single isomer, unassigned) [Example 30], for which the “HAI titer EC>90” value worked out at 0.406 µM.

With `CNC(=O)c1cccc(-c2ccc([C@H](O)[C@H]3OC(CO)[C@@H](O)[C@H](O)C3O)c(C(F)(F)F)c2)c1` (single isomer, unassigned) [Example 40], the “HAI titer EC>90” value was found to be 5 µM.

In the case of `Cc1cc(-c2cccc3c2CCN(C)C3)ccc1[C@@H](O)[C@H]1O[C@H](CO)[C@@H](O)[C@H](O)[C@@H]1O` [Example 5, (2R,3S,4S,5S,6R)-2-((R)-hydroxy(2-methyl-4-(2-methyl-1,2,3,4-tetrahydroisoquinolin-5-yl)phenyl)methyl)-6-(hydroxymethyl)tetrahydro-2H-pyran-3,4,5-triol], the “HAI titer EC>90” value turned out to be 1 µM.

For `CNC(=O)c1cccc(-c2ccc([C@@H](N)[C@H]3O[C@H](CO)[C@@H](O)[C@H](O)[C@@H]3O)c(C)c2)c1` [Example 6, 4′-((R)-amino((2R,3S,4R,5S,6R)-3,4,5-trihydroxy-6-(hydroxymethyl)tetrahydro-2H-pyran-2-yl)methyl)-N,3′-dimethylbiphenyl-3-carboxamide], the “HAI titer EC>90” value was found to be 0.5 µM.

Turning to `CNC(=O)c1cccc(-c2ccc([C@@H](OC)[C@H]3O[C@H](CO)[C@@H](O)[C@H](O)[C@@H]3O)c(C)c2)c1` [Example 7, 4′-((R)-methoxy((2S,3S,4S,5S,6R)-3,4,5-trihydroxy-6-(hydroxymethyl)tetrahydro-2H-pyran-2-yl)methyl)-N,3′-dimethylbiphenyl-3-carboxamide], the “HAI titer EC>90” value was 2 µM.

Turning to `CNC(=O)c1cccc(-c2ccc(C(F)(F)[C@H]3O[C@H](CO)[C@@H](O)[C@H](O)[C@@H]3O)c(C)c2)c1` [Example 9, 4′-(difluoro((2S,3S,4S,5S,6R)-3,4,5-trihydroxy-6-(hydroxymethyl)tetrahydro-2H-pyran-2-yl)methyl)-N,3′-dimethylbiphenyl-3-carboxamide], the “HAI titer EC>90” value was 1.5 µM.

Take `Cc1cc(-c2ccc3cnccc3c2)ccc1[C@@H](O)[C@H]1O[C@H](CO)[C@@H](O)[C@H](O)[C@@H]1O` [Example 10, (2R,3S,4S,5S,6R)-2-((R)-Hydroxy (4-(isoquinolin-6-yl)-2-methylphenyl)methyl)-6-(hydroxymethyl)-tetrahydro-2H-pyran-3,4,5-triol]: the “HAI titer EC>90” value stood at 0.052 µM.

As to `Cc1cc(-c2ccc3ccn(C)c(=O)c3c2)ccc1[C@@H](O)[C@H]1O[C@H](CO)[C@@H](O)[C@H](O)[C@@H]1O` [Example 11, 7-(4-((R)-Hydroxy ((2R,3S,4S,5S,6R)-3,4,5-trihydroxy-6-(hydroxymethyl)-tetrahydro-2H-pyran-2-yl)methyl)-3-methylphenyl)-2-methylisoquinolin-1 (2H)-one], the “HAI titer EC>90” value is 0.011 µM.

Take `Cc1cc(-c2ccc3c(c2)C(=O)N(C)CC3)ccc1[C@@H](O)[C@H]1O[C@H](CO)[C@@H](O)[C@H](O)[C@@H]1O` [Example 12, 7-(4-((R)-Hydroxy ((2R,3S,4S,5S,6R)-3,4,5-trihydroxy-6-(hydroxymethyl)-tetrahydro-2H-pyran-2-yl)methyl)-3-methylphenyl)-2-methyl-3,4-dihydroisoquinolin-1 (2H)-one]: the “HAI titer EC>90” value was 0.008 µM.

`Cc1cc(-c2cccc3c2CNC3=O)ccc1[C@@H](O)[C@H]1O[C@H](CO)[C@@H](O)[C@H](O)[C@@H]1O` [Example 13, 4-(4-((R)-Hydroxy ((2R,3S,4S,5S,6R)-3,4,5-trihydroxy-6-(hydroxymethyl)-tetrahydro-2H-pyran-2-yl)methyl)-3-methylphenyl)isoindolin-1-one]: the “HAI titer EC>90” value was 0.083 µM.

With `Cc1cc(-c2ccc3ncccc3c2)ccc1[C@@H](O)[C@H]1O[C@H](CO)[C@@H](O)[C@H](O)[C@@H]1O` [Example 14, (2R,3S,4S,5S,6R)-2-((R)-Hydroxy (2-methyl-4-(quinolin-6-yl)phenyl)methyl)-6-(hydroxymethyl)-tetrahydro-2H-pyran-3,4,5-triol], the “HAI titer EC>90” value is 0.032 µM.

Consider `Cc1cc(-c2ccc3cccnc3c2)ccc1[C@@H](O)[C@H]1O[C@H](CO)[C@@H](O)[C@H](O)[C@@H]1O` [Example 15, (2R,3S,4S,5S,6R)-2-((R)-Hydroxy (2-methyl-4-(quinolin-7-yl)phenyl)methyl)-6-(hydroxymethyl)-tetrahydro-2H-pyran-3,4,5-triol], for which the “HAI titer EC>90” value was 0.015 µM.

In the case of `Cc1cc(-c2ccc3ncn(C)c3c2)ccc1[C@@H](O)[C@H]1O[C@H](CO)[C@@H](O)[C@H](O)[C@@H]1O` [Example 16, (2R,3S,4S,5S,6R)-2-((R)-Hydroxy (2-methyl-4-(3-methyl-3H-benzo[d]imidazol-5-yl)phenyl)methyl)-6-(hydroxymethyl)-tetrahydro-2H-pyran-3,4,5-triol], the “HAI titer EC>90” value came out at 0.042 µM.

As for `Cc1cc(-c2ccc3nc[nH]c3c2)ccc1[C@@H](O)[C@H]1O[C@H](CO)[C@@H](O)[C@H](O)[C@@H]1O` [Example 17, (2R,3S,4S,5S,6R)-2-((R)-(4-(3H-Benzo[d]imidazol-5-yl)-2-methylphenyl) (hydroxy)methyl)-6-(hydroxymethyl)-tetrahydro-2H-pyran-3,4,5-triol], the “HAI titer EC>90” value was determined as 0.037 µM.

In the case of `Cc1cc(-c2cccc3c(N)n[nH]c23)ccc1[C@@H](O)[C@H]1O[C@H](CO)[C@@H](O)[C@H](O)[C@@H]1O` [Example 18, (2R,3S,4S,5S,6R)-2-((R)-(4-(3-Amino-1H-indazol-7-yl)-2-methylphenyl) (hydroxy)methyl)-6-(hydroxymethyl)-tetrahydro-2H-pyran-3,4,5-triol], the “HAI titer EC>90” value was determined as 0.006 µM.

As to `Cc1cc(-c2ccc3c(c2)C(=O)NC3)ccc1[C@@H](O)[C@H]1O[C@H](CO)[C@@H](O)[C@H](O)[C@@H]1O` [Example 19, 6-(4-((R)-Hydroxy ((2R,3S,4S,5S,6R)-3,4,5-trihydroxy-6-(hydroxymethyl)-tetrahydro-2H-pyran-2-yl)methyl)-3-methylphenyl)isoindolin-1-one], the “HAI titer EC>90” value was 0.016 µM.

`Cc1cc(-c2ccc3onc(C)c3c2)ccc1[C@@H](O)[C@H]1O[C@H](CO)[C@@H](O)[C@H](O)[C@@H]1O` [Example 20, (2R,3S,4S,5S,6R)-2-((R)-Hydroxy (2-methyl-4-(3-methylbenzo[d]isoxazol-5-yl)phenyl)methyl)-6-(hydroxymethyl)-tetrahydro-2H-pyran-3,4,5-triol]: the “HAI titer EC>90” value worked out at 0.068 µM.

Consider `Cc1cc(-c2ccc3ccncc3c2)ccc1[C@@H](O)[C@H]1O[C@H](CO)[C@@H](O)[C@H](O)[C@@H]1O` [Example 21, (2R,3S,4S,5S,6R)-2-((R)-Hydroxy (4-(isoquinolin-7-yl)-2-methylphenyl)methyl)-6-(hydroxymethyl)-tetrahydro-2H-pyran-3,4,5-triol], for which the “HAI titer EC>90” value is 0.016 µM.

For `Cc1cc(-c2ccnc(Cl)c2)ccc1[C@@H](O)[C@H]1O[C@H](CO)[C@@H](O)[C@H](O)[C@@H]1O` [Example 22, (2R,3S,4S,5S,6R)-2-((R)-(4-(2-Chloropyridin-4-yl)-2-methylphenyl) (hydroxy)methyl)-6-(hydroxymethyl)-tetrahydro-2H-pyran-3,4,5-triol], the “HAI titer EC>90” value came out at 0.027 µM.

`Cc1cc(-c2ccnc(-c3ccnc(Cl)c3)c2)ccc1[C@@H](O)[C@H]1O[C@H](CO)[C@@H](O)[C@H](O)[C@@H]1O` [Example 23, (2R,3S,4S,5S,6R)-2-((R)-(4-(2′-Chloro-[2,4′-bipyridin]-4-yl)-2-methylphenyl) (hydroxy)methyl)-6-(hydroxymethyl)tetrahydro-2H-pyran-3,4,5-triol]: the “HAI titer EC>90” value was 0.008 µM.

Take `CNc1cc(-c2ccc([C@@H](O)[C@H]3O[C@H](CO)[C@@H](O)[C@H](O)[C@@H]3O)c(C)c2)ccn1` [Example 24, (2R,3S,4S,5S,6R)-2-((R)-Hydroxy (2-methyl-4-(2-(methylamino)pyridin-4-yl)phenyl)methyl)-6-(hydroxymethyl)-tetrahydro-2H-pyran-3,4,5-triol]: the “HAI titer EC>90” value worked out at 0.032 µM.

For the compound `Cc1cc(-c2ccnc(N3CCOCC3)c2)ccc1[C@@H](O)[C@H]1O[C@H](CO)[C@@H](O)[C@H](O)[C@@H]1O` [Example 25, (2R,3S,4S,5S,6R)-2-((R)-Hydroxy (2-methyl-4-(2-morpholinopyridin-4-yl)phenyl)methyl)-6-(hydroxymethyl)-tetrahydro-2H-pyran-3,4,5-triol], the “HAI titer EC>90” value turned out to be 0.006 µM.

Consider `Cc1cc(-c2ccnc(N)c2)ccc1[C@@H](O)[C@H]1O[C@H](CO)[C@@H](O)[C@H](O)[C@@H]1O` [Example 26, (2R,3S,4S,5S,6R)-2-((R)-(4-(2-Aminopyridin-4-yl)-2-methylphenyl) (hydroxy)methyl)-6-(hydroxymethyl)-tetrahydro-2H-pyran-3,4,5-triol], for which the “HAI titer EC>90” value came out at 0.039 µM.

With `Cc1cc(-c2ccnc(N(C)C)c2)ccc1[C@@H](O)[C@H]1O[C@H](CO)[C@@H](O)[C@H](O)[C@@H]1O` [Example 27, (2R,3S,4S,5S,6R)-2-((R)-(4-(2-(Dimethylamino)pyridin-4-yl)-2-methylphenyl) (hydroxy)methyl)-6-(hydroxymethyl)-tetrahydro-2H-pyran-3,4,5-triol], the “HAI titer EC>90” value was determined as 0.016 µM.

Take `Cc1cc(-c2ccc3onc(N)c3c2)ccc1[C@@H](O)[C@H]1O[C@H](CO)[C@@H](O)[C@H](O)[C@@H]1O` [Example 28, (2R,3S,4S,5S,6R)-2-((R)-(4-(3-Aminobenzo[d]isoxazol-5-yl)-2-methylphenyl) (hydroxy)methyl)-6-(hydroxymethyl)-tetrahydro-2H-pyran-3,4,5-triol]: the “HAI titer EC>90” value came out at 0.027 µM.

Source of the values: patent publication US20200002303A1, “C-GLYCOSIDE COMPOUNDS USEFUL FOR TREATING DISEASE” (Fimbrion Therapeutics, Inc., priority 2016, published 2020).
